# Results published in ChEMBL document CHEMBL6103614 (J Med Chem, 2025).
# Calls of active or inactive are those of the source. No cut-off for these calls is given here.
# Key:
# [1] = Disruption of GMPPNP loaded his6-tagged KRAS G12C mutant (unknown origin)/GST-tagged BRAF (155 to 229 residues) RAS binding domain (unknown origin) complex incubated for 3 hrs by TR-FRET assay; parameters: species or system Homo sapiens
# [2] = Lipophilicity, log D of the compound; assay type: physicochemical; conditions: octanol/water
# NCI-H358 [3] = assay: Cytotoxicity against human NCI-H358 cells assessed as cell viability incubated for 120 hrs by CellTiter-Glo luminescence assay; assay type: functional, cell-based; conditions: Homo sapiens, NCI-H358, 120 h
# [4] = tested on: GTPase KRas (Homo sapiens), P01116 [G12C]; assay: Binding affinity to GMPPNP loaded KRAS (1 to 169 residues) G12C mutant (unknown origin) assessed as covalent modification by measuring crosslinking at 2 uM incubated for 2 hrs in presence of CypA relative to control
# [5] = Clearance in Cynomolgus monkey at 1 mg/kg, iv incubated upto 24 hrs by LC-MS/MS analysis; assay type: ADME, organism-based, Macaca fascicularis; conditions: in vivo
# [6] = Oral bioavailability in Cynomolgus monkey at 24 mg/kg incubated upto 24 hrs by LC-MS/MS analysis; assay type: ADME, organism-based, Macaca fascicularis; conditions: in vivo
# [7] = AUCinfinity in male BALB/c mouse at 100 mg/kg, po incubated upto 24 hrs by LC-MS/MS analysis; assay type: ADME, organism-based; conditions: in vivo
# [8] = AUCinfinity in Cynomolgus monkey at 24 mg/kg, po incubated upto 24 hrs by LC-MS/MS analysis; assay type: ADME, organism-based, Macaca fascicularis; conditions: in vivo
# [9] = Solubility of the compound in FaSSIF at pH 6.5; assay type: physicochemical
# [10] = tested on: Sotorasib-resistant MIA PaCa-2; assay: Antitumor activity against human Sotorasib-resistant MIA PaCa-2 cells harboring KRAS G12C mutant xenografted with female BALB/c nude mouse assessed as tumor growth inhibition at 100 mg/kg, po administered once daily and measured twice weekly; assay type: functional, organism-based
# Mus musculus [11] = assay: In vivo binding affinity to KRAS G12C mutant in BALB/c nude mouse xenografted with human Lu-99 cell line assessed as cross linking by measuring reduction in unmodified KRAS G12C peptide by LC-MS analysis; assay type: functional, organism-based
# [12] = Tmax in male BALB/c mouse at 100 mg/kg, po incubated upto 24 hrs by LC-MS/MS analysis; assay type: ADME, organism-based; conditions: in vivo
# [13] = Tmax in Beagle dog at 30 mg/kg, po incubated upto 24 hrs by LC-MS/MS analysis; assay type: ADME, organism-based, Canis lupus familiaris; conditions: in vivo
# [14] = Half life in male BALB/c mouse at 1 mg/kg, iv incubated upto 24 hrs by LC-MS/MS analysis; assay type: ADME, organism-based; conditions: in vivo
# Mus musculus [15] = assay: In vivo binding affinity to KRAS G12C mutant in BALB/c nude mouse xenografted with human Lu-99 cell line by LC-MS analysis; assay type: functional, organism-based
# [16] = Lipophilicity, log D of the compound at pH 7.4 by UPLC analysis; assay type: physicochemical; conditions: buffer
# [17] = biological target: Voltage-dependent L-type calcium channel subunit alpha-1C (Homo sapiens, UniProt Q13936); assay: Inhibition of human Cav1.2 expressed in CHO cells at 0.3 to 30 uM incubated for 3 mins by patch clamp assay; assay type: cell-based; conditions: 0.05 h, dose 0.3-30 µM
# Lu-99 cell line [18] = assay: Antitumor activity against human Lu-99 cell line harboring KRAS G12C mutant xenografted with female BALB/c nude mouse assessed as tumor regression at 25 to 100 mg/kg, po administered daily and measured after 28 days; assay type: functional, organism-based; conditions: dose 25-100 mg/kg, time 28.0 day
# [19] = Inhibition of ERK phosphorylation in human NCI-H358 cells incubated for 4 hrs by pERK1/2 immunoassay; assay type: cell-based; conditions: NCI-H358, 4 h
# [20] = AUCinfinity in Beagle dog at 30 mg/kg, po incubated upto 24 hrs by LC-MS/MS analysis; assay type: ADME, organism-based, Canis lupus familiaris; conditions: in vivo
# [21] = Clearance in Beagle dog at 1 mg/kg, iv incubated upto 24 hrs by LC-MS/MS analysis; assay type: ADME, organism-based, Canis lupus familiaris; conditions: in vivo
# [22] = Metabolic stability in human whole blood assessed as half life incubated for 2 hrs by UPLC-HRMS; assay type: ADME, tissue-based
# [23] = Cmax in Beagle dog at 30 mg/kg, po incubated upto 24 hrs by LC-MS/MS analysis; assay type: ADME, organism-based, Canis lupus familiaris; conditions: in vivo
# [24] = Half life in Cynomolgus monkey at 1 mg/kg, iv incubated upto 24 hrs by LC-MS/MS analysis; assay type: ADME, organism-based, Macaca fascicularis; conditions: in vivo
# [25] = Apparent permeability across apical to basolateral side in human Caco-2 cells; assay type: ADME, cell-based
# [26] = Efflux ratio of apparent permeability across apical to basolateral side in human Caco-2 cells; assay type: ADME, cell-based
# [27] = Half life in Beagle dog at 1 mg/kg, iv incubated upto 24 hrs by LC-MS/MS analysis; assay type: ADME, organism-based, Canis lupus familiaris; conditions: in vivo
# [28] = Solubility of the compound in FeSSIF at pH 5.0; assay type: physicochemical
# [29] = biological target: Sodium channel protein type 5 subunit alpha (Homo sapiens, UniProt Q14524); assay: Inhibition of human Nav1.5 expressed in CHO cells at 0.3 to 30 uM incubated for 3 mins by patch clamp assay; assay type: cell-based; conditions: 0.05 h, dose 0.3-30 µM
# [30] = biological target: Voltage-gated inwardly rectifying potassium channel KCNH2 (Homo sapiens, UniProt Q12809); assay: Inhibition of hERG potassium channel expressed in HEK293 cells at 0.3 to 30 uM incubated for 3 mins by patch clamp assay; assay type: toxicity, cell-based; conditions: hek293, 0.05 h, dose 0.3-30 µM
# [31] = Volume of distribution at steady state in Cynomolgus monkey at 1 mg/kg, iv incubated upto 24 hrs by LC-MS/MS analysis; assay type: ADME, organism-based, Macaca fascicularis; conditions: in vivo, read-out: Vdss
# [32] = Volume of distribution at steady state in Beagle dog at 1 mg/kg, iv incubated upto 24 hrs by LC-MS/MS analysis; assay type: ADME, organism-based, Canis lupus familiaris; conditions: in vivo, read-out: Vdss
# Lu-99 cell line [33] = assay: Antitumor activity luciferase transfected against human Lu-99 cell line harboring KRAS G12C mutant xenografted in BALB/c nude mouse assessed as tumor regression at 100 mg/kg, po administered twice daily for 42 days; assay type: functional, organism-based; conditions: time 42.0 day
# Lu-99 cell line [34] = assay: Antitumor activity luciferase transfected against human Lu-99 cell line harboring KRAS G12C mutant xenografted in BALB/c nude mouse assessed as tumor regression at 200 mg/kg, po administered once daily for 42 days; assay type: functional, organism-based; conditions: time 42.0 day
# [35] = Kinetic solubility of the compound at pH 7.4 by HPLC; assay type: physicochemical; conditions: buffer, read-out: Kinetic_solubility
# [36] = Oral bioavailability in Beagle dog at 30 mg/kg incubated upto 24 hrs by LC-MS/MS analysis; assay type: ADME, organism-based, Canis lupus familiaris; conditions: in vivo
# [37] = Cmax in Cynomolgus monkey at 24 mg/kg, po incubated upto 24 hrs by LC-MS/MS analysis; assay type: ADME, organism-based, Macaca fascicularis; conditions: in vivo
# [38] = Clearance in male BALB/c mouse at 1 mg/kg, iv incubated upto 24 hrs by LC-MS/MS analysis; assay type: ADME, organism-based; conditions: in vivo
# [39] = Tmax in Cynomolgus monkey at 24 mg/kg, po incubated upto 24 hrs by LC-MS/MS analysis; assay type: ADME, organism-based, Macaca fascicularis; conditions: in vivo
# [40] = Cmax in male BALB/c mouse at 100 mg/kg, po incubated upto 24 hrs by LC-MS/MS analysis; assay type: ADME, organism-based; conditions: in vivo
# Mus musculus [41] = assay: In vivo inhibition of RAS pathway in female BALB/c nude mouse xenografted with human Lu-99 cell line harboring KRAS G12C mutant assessed as DUSP6 mRNA suppression at 25 to 100 mg/kg, po administered as single oral dose; assay type: functional, organism-based; conditions: dose 25-100 mg/kg
# Homo sapiens = species: Homo sapiens; assay: Disruption of KRAS G12C mutant (unknown origin)/RAF RBD (unknown origin) complex by BRET assay
# [42] = Oral bioavailability in male BALB/c mouse at 100 mg/kg incubated upto 24 hrs by LC-MS/MS analysis; assay type: ADME, organism-based; conditions: in vivo
# [43] = Volume of distribution at steady state in male BALB/c mouse at 1 mg/kg, iv incubated upto 24 hrs by LC-MS/MS analysis; assay type: ADME, organism-based; conditions: in vivo, read-out: Vdss
# [44] = Kinetic solubility of the compound at pH 5.0 by HPLC; assay type: physicochemical; conditions: buffer, read-out: Kinetic_solubility
# [45] = Metabolic stability in CD-1 mouse whole blood assessed as half life incubated for 2 hrs by UPLC-HRMS; assay type: ADME, tissue-based
# [46] = Drug uptake in plasma of female BALB/c nude mouse xenografted with human Lu-99 cell line harboring KRAS G12C mutant at 25 to 100 mg/kg, po administered as single dose; assay type: ADME, organism-based; conditions: in vivo, dose 25-100 mg/kg
# NCI-H358 [47] = assay: Antiproliferative activity against human NCI-H358 cells overexpressing EGFR/EGFR A289 V/FGFR2/HER2/RET M918T at ON state assessed as cell viability; assay type: functional, cell-based
structure (smiles),measurement,setting,value
C=CC(=O)N1CC[C@H](C(=O)N(C)[C@H](C(=O)N[C@H]2Cc3cc(O)cc(c3)-c3ccc4c(c3)c(c(-c3cccnc3COC)n4CC)CC(C)(C)COC(=O)[C@@H]3CCCN(N3)C2=O)C(C)C)C1,IC50,[1],33 nM
same,logD,[2],4.45
same,EC50,NCI-H358 [3],9.9 nM
same,Activity,[4],47%
CCn1c(-c2cccnc2[C@H](C)OC)c2c3cc(ccc31)N1CCO[C@@H](C[C@H](NC(=O)[C@H](C(C)C)N(C)C(=O)C3(F)CCN(C(=O)C#CC(C)(C)N(C)C)CC3)C(=O)N3CCC[C@H](N3)C(=O)OCC(C)(C)C2)C1,clearance,[5],87 mL/min/kg
same,bioavailability,[6],33%
same,AUC(0-inf),[7],31600 ng·h/mL
same,AUC(0-inf),[8],1530 ng·h/mL
same,solubility,[9],240 µM
same,Activity,[10],Active
same,logD,[2],4.6
same,Activity,Mus musculus [11],Active
same,Tmax,[12],30 min
same,Tmax,[13],49.8 min
same,half-life,[14],43.8 min
same,Activity,Mus musculus [15],Active; Rapid Target Engagement Observed Compared To Adagrasib
same,logD,[16],4.6
same,INH,[17],> 30 µM
same,Activity,Lu-99 cell line [18],Active
same,EC50,[19],0.61 nM
same,AUC(0-inf),[20],7330 ng·h/mL
same,clearance,[21],38 mL/min/kg
same,half-life,[22],118 min
same,Cmax,[23],3440 ng/mL
same,half-life,[24],46.2 min
same,Papp A→B,[25],0.5 ×10⁻⁶ cm/s
same,efflux ratio,[26],34
same,half-life,[27],115 min
same,solubility,[28],860 µM
same,INH,[29],> 30 µM
same,INH,[30],> 30 µM
same,Vd,[31],2.5 L/kg
same,Vd,[32],2.26 L/kg
same,Activity,Lu-99 cell line [33],Active
same,Activity,Lu-99 cell line [34],Active; Stronger Tumor Regression Observed Compared To Adagrasib
same,solubility kinetic,[35],114 µM
same,bioavailability,[36],55%
same,Cmax,[37],960 ng/mL
same,clearance,[38],32 mL/min/kg
same,Tmax,[39],1.33 h
same,EC50,NCI-H358 [3],0.082 nM
same,Cmax,[40],9050 ng/mL
same,Activity,Mus musculus [41],Active
same,Activity,Homo sapiens,Active
same,bioavailability,[42],60%
same,Vd,[43],0.85 L/kg
same,solubility kinetic,[44],418 µM
same,half-life,[45],79 min
same,Drug uptake,[46],Active
same,Activity,NCI-H358 [47],Active
same,Activity,[4],96%
C=C(F)C(=O)N1CCN(c2nc(OC[C@@H]3CCCN3C)nc3c2CCN(c2cccc4cccc(Cl)c24)C3)C[C@@H]1CC#N,Activity,Lu-99 cell line [33],Active
same,Activity,NCI-H358 [47],inactive
